Here are results for 17 compounds from patent US20260167632A1, “NICOTINAMIDE DERIVATIVES FOR USE IN TREATING DISORDERS ASSOCIATED WITH KCNK13 ACTIVITY” (Cerevance, Inc., priority 2022, published 2026).

The target in the assay is T1, human KCNK13 (Homo sapiens, UniProt Q9HB14).
T1 construct: expressed in transfected cells
T1 sequence (Q9HB14 1-408): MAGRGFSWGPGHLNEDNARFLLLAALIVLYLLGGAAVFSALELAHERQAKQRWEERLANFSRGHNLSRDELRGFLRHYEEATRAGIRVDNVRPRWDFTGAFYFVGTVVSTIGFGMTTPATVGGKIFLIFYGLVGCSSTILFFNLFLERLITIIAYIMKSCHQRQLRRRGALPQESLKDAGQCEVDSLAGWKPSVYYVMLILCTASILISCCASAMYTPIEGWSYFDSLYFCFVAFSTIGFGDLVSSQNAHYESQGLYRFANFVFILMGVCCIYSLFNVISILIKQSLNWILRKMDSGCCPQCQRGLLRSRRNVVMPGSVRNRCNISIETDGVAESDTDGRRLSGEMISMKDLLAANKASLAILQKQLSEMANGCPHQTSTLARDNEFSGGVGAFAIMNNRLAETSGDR
The assay is described as follows: KCNK13 antagonist activity, thallium flux FLIPR assay in HEK 293 cells stably expressing human KCNK13. The format is cell-based. The settings on record: HEK 293 cells stably expressing human KCNK13, Tl+ sensitive dye, compound 15 min before thallium sulfate, ten point curves; read-out: hKCNK13 IC50. Here is the method:
4. Biological Efficacy of Compounds of the Invention
KCNK13 antagonist activity was determined by measuring changes in intracellular Thallium (Tl^+) concentrations using a Tl^+ sensitive fluorescent dye. The changes in fluorescent signal were monitored by Fluorescent Imaging Plate Reader (FLIPR™) technology available from Molecular Devices, LLC, US. KCNK13 mediated increases in intracellular Tl^+ concentration were readily detected by addition of a thallium sulfate Stimulus. 24 hours prior to the assay, human embryonic kidney 293 cells (HEK 293 cells) stably expressing human KCNK13 were seeded in cell culture medium in PDL coated black, clear-bottom 384-well plates (commercially available from Corning Inc., 356663) and grown overnight at 37° C., […]. On the day of the assay, cell culture media was removed and cells were loaded with potassium dye (commercially sold by Molecular Devices, LLC, US, R8222) for 1 hour at room temperature in the dark. Test compounds (at 10 point half log concentration response curves from 100 µM) were added to cells for 15 minutes prior to the addition of thallium sulfate to all wells. The IC50 values were determined from ten point concentration response curves. Curves were generated using the average of two wells for each data point.
Consider `COc1ncccc1C(=O)N(C)Cc1cccc(F)c1` [Example 32, N-(3-fluorobenzyl)-2-methoxy-N-methylnicotinamide], for which the half-inhibitory concentration (IC50) was no more than 1000 nM.
With `CN(Cc1cc(F)cc(F)c1)S(=O)(=O)c1cc(F)cnc1OC(F)F` [Example 103, N-(3,5-difluorobenzyl)-2-(difluoromethoxy)-5-fluoro-N-methylpyridine-3-sulfonamide], the IC50 was no more than 200 nM.
In the case of `CN(C(=O)c1cc(Cl)cnc1OC(F)F)C1CS(=O)(=O)c2ccccc21` (centres unmarked) [Example 119, 5-chloro-2-(difluoromethoxy)-N-(1,1-dioxido-2,3-dihydrobenzo[b]thiophen-3-yl)-N-methylnicotinamide], the IC50 is no more than 500 nM.
The value for `COc1ncc(F)cc1C(=O)N(C)C1COc2cc(F)ccc21` (centres unmarked) [Example 42, 5-fluoro-N-(6-fluoro-2,3-dihydrobenzofuran-3-yl)-2-methoxy-N-methylnicotinamide] was no more than 1000 nM; that for `COc1ncc(F)cc1C(=O)N(C)C1CCc2ccc(F)cc21` (single isomer, unassigned) [Example 10, 5-fluoro-N-(6-fluoro-2,3-dihydro-1H-inden-1-yl)-2-methoxy-N-methylnicotinamide] was no more than 500 nM; that for `COc1ncccc1S(=O)(=O)N1CCOc2ccc(F)cc2C1` [Example 55, 7-fluoro-4-((2-methoxypyridin-3-yl)sulfonyl)-2,3,4,5-tetrahydrobenzo[f][1,4]oxazepine] was no more than 500 nM.
The value for `COc1ncc(F)cc1C(=O)N(C)C1COc2ccc(F)cc21` (centres unmarked) [Example 35, 5-fluoro-N-(5-fluoro-2,3-dihydrobenzofuran-3-yl)-2-methoxy-N-methylnicotinamide] was no more than 500 nM.
The value for `COc1ncc(C)cc1S(=O)(=O)N1CCc2ccccc2C1` [Example 51, 2-((2-methoxy-5-methylpyridin-3-yl)sulfonyl)-1,2,3,4-tetrahydroisoquinoline] was no more than 200 nM; that for `COc1ncc(F)cc1C(=O)N(C)Cc1cccc(F)c1F` [Example 38, N-(2,3-difluorobenzyl)-5-fluoro-2-methoxy-N-methylnicotinamide] was no more than 500 nM.
As for `O=S(=O)(c1cc(F)cnc1OC(F)F)N1CCc2ccccc2C1` [Example 110, 2-((2-(difluoromethoxy)-5-fluoropyridin-3-yl)sulfonyl)-1,2,3,4-tetrahydroisoquinoline], the IC50 is no more than 100 nM.
With `C[C@@H](c1cccc(F)c1)N(C)S(=O)(=O)c1cc(F)cnc1OC(F)F` [Example 105, (S)-2-(difluoromethoxy)-5-fluoro-N-(1-(3-fluorophenyl)ethyl)-N-methylpyridine-3-sulfonamide], the IC50 was no more than 1000 nM.
The value for `CC(c1cccc(F)c1)N(C)C(=O)c1cc(Cl)cnc1OC(F)F` (single isomer, unassigned) [Example 87, 5-chloro-2-(difluoromethoxy)-N-(1-(3-fluorophenyl)ethyl)-N-methylnicotinamide] was no more than 200 nM; that for `CCN(Cc1cccc(F)c1)S(=O)(=O)c1cc(F)cnc1OC(F)F` [Example 109, 2-(difluoromethoxy)-N-ethyl-5-fluoro-N-(3-fluorobenzyl)pyridine-3-sulfonamide] was no more than 1000 nM.
Next, `COc1ncccc1C(=O)N(C)Cc1ccccc1F` [Example 33, N-(2-fluorobenzyl)-2-methoxy-N-methylnicotinamide]: no more than 500 nM; `COc1ncc(Cl)cc1C(=O)N(C)Cc1ccc(F)cc1C#N` [Example 58, 5-chloro-N-(2-cyano-4-fluorobenzyl)-2-methoxy-N-methylnicotinamide]: no more than 200 nM; `CN(Cc1cccc(F)c1F)C(=O)c1cc(Cl)cnc1OC(F)F` [Example 102, 5-chloro-N-(2,3-difluorobenzyl)-2-(difluoromethoxy)-N-methylnicotinamide]: no more than 100 nM.
On to `CC(c1cccc(F)c1)N(C)C(=O)c1cc(F)cnc1OC(F)F` (centres unmarked) [Example 83, 2-(difluoromethoxy)-5-fluoro-N-(1-(3-fluorophenyl)ethyl)-N-methylnicotinamide], for which the concentration for half-maximal inhibition (IC50) was no more than 100 nM.

One may read the IC50 as the concentration that gives 50% inhibition.
